Measurements: the supplement of paper PMC10307832

Assays:
Test in all cases: relative viability (nuclei count vs DMSO), 5 days (fraction); higher = more cells survive
[1] = test system: NCI-H1651
Summary of the method: (§1)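 Relative viability is defined as nuclei in treated wells over nuclei in vehicle wells. Duplicate plates were run and medians reported. Lung cancer cell lines in 1536-well plates were dosed by pin tool one day after seeding, with one drug or with a fixed anchor-drug dose plus five library-drug doses (not always all listed) in √10 steps, and nuclei were counted after 5 days.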

[2] = test system: NCI-H1355
Summary of the method: as §1

[3] = test system: LOU-NH91
Summary of the method: as §1

[4] = test system: 201T
Summary of the method: as §1

[5] = test system: NCI-H322M
Summary of the method: as §1

[6] = test system: NCI-H1395
Summary of the method: as §1

[7] = test system: HOP-62
Summary of the method: as §1

[8] = test system: NCI-H650
Summary of the method: as §1

[9] = test system: NCI-H1563
Summary of the method: as §1

[10] = test system: BEN
Summary of the method: as §1

[11] = test system: NCI-H1944
Summary of the method: as §1

[12] = test system: NCI-H1793
Summary of the method: as §1

[13] = test system: HCC-78
Summary of the method: as §1

[14] = test system: LCLC-97TM1
Summary of the method: as §1

[15] = test system: NCI-H2126
Summary of the method: as §1

[16] = test system: NCI-H2347
Summary of the method: as §1

[17] = test system: NCI-H441
Summary of the method: as §1

[18] = test system: NCI-H838
Summary of the method: as §1

[19] = test system: CAL-12T
Summary of the method: as §1

[20] = test system: SW 1573
Summary of the method: as §1

[21] = test system: NCI-H3122
Summary of the method: as §1

[22] = test system: SK-LU-1
Summary of the method: as §1

[23] = test system: NCI-H1915
Summary of the method: as §1

Cc1csc(=NC2CCCCC2)n1/N=C/c1ccc(O)c(O)c1O [MIM1] + Cc1nc(NC(=O)N2CCC[C@H]2C(N)=O)sc1-c1ccnc(C(C)(C)C(F)(F)F)c1 [Alpelisib] (partner 2 µM)
relative viability ([1]; first compound 0.2 µM): 0.927
relative viability ([1]; first compound 0.6325 µM): 0.974
relative viability ([1]; first compound 2 µM): 0.921
relative viability ([1]; first compound 6.325 µM): 0.793
relative viability ([1]; first compound 20 µM): 0.936
relative viability ([2]; first compound 0.2 µM): 0.89
relative viability ([2]; first compound 0.6325 µM): 0.805
relative viability ([2]; first compound 2 µM): 0.924
relative viability ([2]; first compound 6.325 µM): 0.672
relative viability ([2]; first compound 20 µM): 0.359
relative viability ([3]; first compound 0.2 µM): 0.704
relative viability ([3]; first compound 0.6325 µM): 0.779
relative viability ([3]; first compound 2 µM): 0.591
relative viability ([3]; first compound 6.325 µM): 0.641
relative viability ([3]; first compound 20 µM): 0.561
relative viability ([4]; first compound 0.2 µM): 1
relative viability ([4]; first compound 0.6325 µM): 1.03
relative viability ([4]; first compound 2 µM): 1.02
relative viability ([4]; first compound 6.325 µM): 0.942
relative viability ([4]; first compound 20 µM): 1.29
relative viability ([5]; first compound 0.2 µM): 0.771
relative viability ([5]; first compound 0.6325 µM): 0.737
relative viability ([5]; first compound 2 µM): 0.836
relative viability ([5]; first compound 6.325 µM): 0.74
relative viability ([5]; first compound 20 µM): 0.834
relative viability ([6]; first compound 0.2 µM): 0.947
relative viability ([6]; first compound 0.6325 µM): 1.06
relative viability ([6]; first compound 2 µM): 0.911
relative viability ([6]; first compound 6.325 µM): 0.537
relative viability ([6]; first compound 20 µM): 0.407
relative viability ([7]; first compound 0.2 µM): 0.785
relative viability ([7]; first compound 0.6325 µM): 0.958
relative viability ([7]; first compound 2 µM): 0.608
relative viability ([7]; first compound 6.325 µM): 1.03
relative viability ([7]; first compound 20 µM): 0.24
relative viability ([8]; first compound 0.2 µM): 1.19
relative viability ([8]; first compound 0.6325 µM): 1.1
relative viability ([8]; first compound 2 µM): 1.27
relative viability ([8]; first compound 6.325 µM): 1.04
relative viability ([8]; first compound 20 µM): 0.396
relative viability ([9]; first compound 0.2 µM): 0.95
relative viability ([9]; first compound 0.6325 µM): 1.04
relative viability ([9]; first compound 2 µM): 0.873
relative viability ([9]; first compound 6.325 µM): 0.802
relative viability ([9]; first compound 20 µM): 0.657
relative viability ([10]; first compound 0.2 µM): 1.13
relative viability ([10]; first compound 0.6325 µM): 0.99
relative viability ([10]; first compound 2 µM): 1.21
relative viability ([10]; first compound 6.325 µM): 1.01
relative viability ([10]; first compound 20 µM): 0.445
relative viability ([11]; first compound 0.2 µM): 0.831
relative viability ([11]; first compound 0.6325 µM): 0.849
relative viability ([11]; first compound 2 µM): 0.671
relative viability ([11]; first compound 6.325 µM): 0.733
relative viability ([11]; first compound 20 µM): 0.882
relative viability ([12]; first compound 0.2 µM): 0.509
relative viability ([12]; first compound 0.6325 µM): 0.584
relative viability ([12]; first compound 2 µM): 0.717
relative viability ([12]; first compound 6.325 µM): 0.579
relative viability ([12]; first compound 20 µM): 0.804
relative viability ([13]; first compound 0.2 µM): 0.329
relative viability ([13]; first compound 0.6325 µM): 0.388
relative viability ([13]; first compound 2 µM): 0.362
relative viability ([13]; first compound 6.325 µM): 0.365
relative viability ([13]; first compound 20 µM): 0.359
relative viability ([14]; first compound 0.2 µM): 0.255
relative viability ([14]; first compound 0.6325 µM): 0.258
relative viability ([14]; first compound 2 µM): 0.207
relative viability ([14]; first compound 6.325 µM): 0.26
relative viability ([14]; first compound 20 µM): 0.129
relative viability ([15]; first compound 0.2 µM): 0.708
relative viability ([15]; first compound 0.6325 µM): 0.756
relative viability ([15]; first compound 2 µM): 0.776
relative viability ([15]; first compound 6.325 µM): 0.758
relative viability ([15]; first compound 20 µM): 0.727
relative viability ([16]; first compound 0.2 µM): 1.03
relative viability ([16]; first compound 0.6325 µM): 1.02
relative viability ([16]; first compound 2 µM): 1.13
relative viability ([16]; first compound 6.325 µM): 0.728
relative viability ([16]; first compound 20 µM): 0.534
relative viability ([17]; first compound 0.2 µM): 0.75
relative viability ([17]; first compound 0.6325 µM): 0.63
relative viability ([17]; first compound 2 µM): 0.655
relative viability ([17]; first compound 6.325 µM): 0.594
relative viability ([17]; first compound 20 µM): 0.187
relative viability ([18]; first compound 0.2 µM): 0.974
relative viability ([18]; first compound 0.6325 µM): 1
relative viability ([18]; first compound 2 µM): 0.83
relative viability ([18]; first compound 6.325 µM): 0.827
relative viability ([18]; first compound 20 µM): 1.09
relative viability ([19]; first compound 0.2 µM): 1.14
relative viability ([19]; first compound 0.6325 µM): 1.36
relative viability ([19]; first compound 2 µM): 1.24
relative viability ([19]; first compound 6.325 µM): 0.997
relative viability ([19]; first compound 20 µM): 0.973
relative viability ([20]; first compound 0.2 µM): 0.809
relative viability ([20]; first compound 0.6325 µM): 0.758
relative viability ([20]; first compound 2 µM): 0.808
relative viability ([20]; first compound 6.325 µM): 0.639
relative viability ([20]; first compound 20 µM): 0.618
relative viability ([21]; first compound 0.2 µM): 0.825
relative viability ([21]; first compound 0.6325 µM): 0.833
relative viability ([21]; first compound 2 µM): 0.881
relative viability ([21]; first compound 6.325 µM): 0.644
relative viability ([21]; first compound 20 µM): 0.249
relative viability ([22]; first compound 0.2 µM): 1
relative viability ([22]; first compound 0.6325 µM): 1.06
relative viability ([22]; first compound 2 µM): 1.26
relative viability ([22]; first compound 6.325 µM): 0.87
relative viability ([22]; first compound 20 µM): 0.715
relative viability ([23]; first compound 0.2 µM): 1.14
relative viability ([23]; first compound 0.6325 µM): 1.04
relative viability ([23]; first compound 2 µM): 1.02
relative viability ([23]; first compound 6.325 µM): 0.773
relative viability ([23]; first compound 20 µM): 0.277
